Consider 59 molecules from the METLIN SMRT retention time set (Domingo-Almenara et al. 2019).

Structures are written as SMILES.

This data set can be described thus: gradient 5% acetonitrile 3 min, to 50% in 2 min, to 85% in 15 min, held 3 min, 100 µL/min. The note with it: column: Zorbax Extend-C18 2.1 x 50 mm; eluents: water / acetonitrile, 0.1% formic acid. The procedure, abridged:
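Standards, all pure, were combined into mixtures of ~100 molecules and run at 100 μL/min on a Zorbax Extend-C18 column (2.1 × 50 mm, 1.8 μm) with water and acetonitrile, each containing 0.1% formic acid. A coupled quadrupole time-of-flight mass spectrometer operated in positive and negative ionization mode. Retention time values come from computationally picked adduct peaks, each inspected manually.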
Consider `C=CCn1c(C)c(CC(=O)Nc2ccc(F)cc2)c(=O)n2nc(-c3ccc(C)cc3)nc12`, for which the RP-LC retention time is 945 s.

Regarding `COC(=O)C1=CN(c2cccc(OC)c2)c2ccccc2S1(=O)=O`, the RP-LC retention time was found to be 776 s. With `CCCc1cc(C2CCCN2C(=O)NCCc2ccccc2)no1` (centres undefined) the figure was 874 s. Regarding `CCOC(=O)c1[nH]c(C)c(C(=O)C(C)N(CC)C(=O)c2ccc(OC)cc2)c1C` (centres undefined), the RP-LC retention time came to 795 s. With `O=C(Nc1nc2ccccc2s1)C1CCN(C(=O)c2cccc(F)c2)CC1` the figure was 821 s. `Cc1ccc(-c2noc(C(=O)N3CCOCC3)n2)cc1S(=O)(=O)N1CCN(c2ncccn2)CC1` yielded an RP-LC retention time of 906 s. As to `COc1ccccc1CNC(=O)Cn1nc(C)c2sc(-c3ccccc3)nc2c1=O`, the RP-LC retention time turned out to be 884 s.

Molecule `O=Cc1ccc(O)c2ncccc12` came in with an RP-LC retention time of 658 s. For `COc1ccccc1OCCC1CCN(C(=O)CCS(=O)(=O)c2ccc3c(c2)CCN3C(C)=O)C1` (centres undefined), the RP-LC retention time turned out to be 788 s. With `COc1cccc(OCC(O)CN2CCN(c3ccccc3)CC2)c1` (centres undefined) the figure was 727 s; with `COCCNC(=O)c1nc(-c2ccnc(N3CCCCC3)c2)no1`, 612 s. Regarding `OC1CCCCC1N1CCC(c2ccccc2)CC1` (centres undefined), the RP-LC retention time was 679 s.

Regarding `COc1cc(-c2nnc(-c3ccc(C)c(S(=O)(=O)N4CCOCC4)c3)o2)cc(OC)c1OC`, the RP-LC retention time came to 891 s. As for `COc1cc(OC)cc(C(=O)N2CCN(c3cc(-c4cccnc4)[nH]n3)CC2)c1`, the RP-LC retention time came to 570 s.

`Cc1ccn2c(Nc3ccc4c(c3)OCO4)c(-c3ccc(O)cc3)nc2c1` registered an RP-LC retention time of 629 s.

`CCOC(=O)c1ccc(Nc2c(-c3ccc(C(=O)OC)cc3)nc3cnccn23)cc1`: the RP-LC retention time is 856 s.

With `Cc1cccc2c(C(=O)NC3CC3)cc(N3CCCC3)nc12`, the RP-LC retention time amounted to 593 s. Then `CCN(c1cccc(C)c1)S(=O)(=O)c1cc2n(c1)CCCN(C)C2=O`, with 783 s; and `O=C(Nc1cc(F)cc(F)c1)N1CCCN(C2CCN(Cc3ccc(F)cc3)C2=O)CC1` (centres undefined), with 688 s.

Molecule `O=C(NCc1csc(C2CCN(C(=O)C3CCCO3)CC2)n1)C1CC1` (centres undefined) gave an RP-LC retention time of 614 s. Molecule `O=S(=O)(Nc1ccc(F)cc1)c1ccc2c(c1)-c1oncc1CO2` had an RP-LC retention time of 866 s.

Molecule `Clc1ccc(-c2noc(CN3CCOCC3)n2)cc1` came in with an RP-LC retention time of 775 s. `COc1ccc(-c2noc(Cn3nc(-c4ccccc4)ccc3=O)n2)cc1` gave an RP-LC retention time of 953 s. `CCNc1cc(N2CCC(CCC(=O)NCc3ccc(C)cc3)CC2)ncn1`: the RP-LC retention time turned out to be 676 s. `O=c1c2cc(-c3ccc(F)cc3)nn2cnn1Cc1nc(-c2ccc(Cl)cc2)no1` registered an RP-LC retention time of 1190 s.

As for `O=S(=O)(NCc1ccccc1Cl)c1ccc2c(c1)-c1oncc1CO2`, the RP-LC retention time was 907 s. `O=C(COc1ccc(Cl)cc1)Nc1nc(-c2ccccc2)cs1` gave an RP-LC retention time of 1100 s. Molecule `CCc1nc(-c2csc(S(=O)(=O)N3CCCC(C(=O)Nc4cccc(C#N)c4)C3)c2)no1` (centres undefined) returned an RP-LC retention time of 1010 s. In turn, `COc1cccc(OC)c1C(=O)N1CCCC1c1cc(C)on1` (centres undefined) registered an RP-LC retention time of 679 s. In turn, `Cc1ccc(C)c(CNC(=O)C2CCc3nc(N4CCCC4)ncc3C2)c1` (centres undefined) gave an RP-LC retention time of 691 s. `CC(CCNC(=O)c1cc(S(=O)(=O)N2CCCC2)ccc1Cl)N1CCCC1` (centres undefined) displayed an RP-LC retention time of 601 s. `CC(=O)N1CCCC(CCc2nnc(C3CCOCC3)o2)C1` (centres undefined) yielded an RP-LC retention time of 608 s. Take `Cc1cccc(NC(=O)Cn2cnc3c(sc4nc(-c5ccccc5)ccc43)c2=O)c1`: the RP-LC retention time came out at 1040 s. Then `Cc1cccc(NC(=O)N2CCN(c3cnn4c(C5CC5)nnc4c3)CC2)c1`, with 647 s.

Consider `COc1ccc2c(c1)C1(CCN(S(=O)(=O)c3cccc(C)c3)C1)C(=O)N2` (centres undefined), for which the RP-LC retention time worked out at 840 s. `COc1ccc(C2CC(=O)N(c3ccc(C)cc3)C(=O)C2)cc1OC` registered an RP-LC retention time of 831 s.

Take `Cc1ccn2c(NC(=O)c3cccc([N+](=O)[O-])c3)c(-c3ccc(F)cc3)nc2c1`: the RP-LC retention time amounted to 863 s. For `COC(=O)c1cc(Nc2ccc(OC)cc2OC)c2ccccc2n1`, the RP-LC retention time was found to be 581 s. Then `Cc1nn(-c2ccc(F)cc2)c2nc(N3CCCC(C(=O)NCCc4ccco4)C3)sc12` (centres undefined), with 1080 s. In the case of `CCc1ccccc1N1C(=O)CN(S(=O)(=O)CC)CC1(C)C(=O)NC1CCCC1` (centres undefined), the RP-LC retention time turned out to be 826 s. `CCCNC(=O)N(C1CCOCC1)C1CCN(C(=O)c2ccc(C)s2)CC1` had an RP-LC retention time of 747 s. As to `CCOc1ccc(-c2c(C)nn3c(C)c(C(=O)NCCCN4CCCC4=O)cnc23)cc1OCC`, the RP-LC retention time was determined as 744 s.

Regarding `CSc1ccccc1NC(=O)c1cc(=O)c(OCc2ccc(F)cc2)co1`, the RP-LC retention time amounted to 859 s.

In turn, `COc1ccc(NC(=O)CSc2cc(N3CCN(c4ccccc4OC)CC3)ncn2)c(OC)c1` displayed an RP-LC retention time of 791 s. With `CC(=O)N1CCc2cc(N3CC(C(=O)Nc4ccc(C)cc4)CC3=O)ccc21` (centres undefined) the figure was 720 s; with `CCC(C)NC(=O)Cn1c(=O)ccc2cc(S(=O)(=O)N3CCC(C)CC3)ccc21` (centres undefined), 833 s. `O=C(NCc1cccs1)c1ccc2c(c1)CC(=O)N2Cc1ccc(F)cc1`: the RP-LC retention time was found to be 840 s. Then `Cc1ccc(Nc2nc(NCCO)c3cnn(C)c3n2)cc1C`, with 610 s; and `CCOC(=O)c1c(C)[nH]c(C)c1S(=O)(=O)N1CCC(C(=O)Nc2cc(Cl)ccc2C)CC1`, with 890 s. As to `CCN1CCC2(CC1)N=C(c1ccc(F)cc1)CC(c1cc(Cl)ccc1O)N2` (centres undefined), the RP-LC retention time was 635 s. The molecule `Cc1nc(Cn2cccc2C(=O)Nc2ccc(Cl)cc2F)no1` had an RP-LC retention time of 893 s. For `O=C(CN1CCN(C(=O)Nc2ccc(Br)cc2)CC1=O)NCc1ccco1`, the RP-LC retention time was found to be 718 s.

Take `CCOc1ccccc1NS(=O)(=O)c1ccccc1-c1nc(-c2cccc(F)c2)no1`: the RP-LC retention time is 1280 s. Regarding `O=c1ccc(-c2nc(-c3ccncc3)no2)nn1Cc1ccc(F)cc1Cl`, the RP-LC retention time stood at 904 s. The molecule `O=C(COc1ccccc1)N1CCN(c2nc(CN3CCCC3)cs2)CC1` returned an RP-LC retention time of 623 s.

As to `Cc1cc2cc(CNC(=O)NC3CC(=O)N(c4ccccc4)C3)ccc2[nH]1` (centres undefined), the RP-LC retention time came to 668 s. For `CC(C)NC(=O)c1cc(C(C)(C)C)[nH]n1`, the RP-LC retention time is 710 s. Molecule `COc1cc(NC(=O)N2CCN(Cc3nc4ccc(C)cc4o3)CC2)cc(OC)c1OC` yielded an RP-LC retention time of 669 s. Molecule `Cc1ccc(NC(=O)C2CCC(=O)N2S(=O)(=O)c2ccc(C)c(C)c2)cc1C` (centres undefined) yielded an RP-LC retention time of 1040 s.
